Assays:
Settings in all cases: Compound concentration 1000.0 nM
[1] = target: Ribosomal protein S6 kinase alpha-3 (Homo sapiens) (UniProt P51812)
[2] = target: Serine/threonine-protein kinase Nek2 (Homo sapiens) (UniProt P51955)
[3] = target: Tyrosine-protein kinase Lck (Homo sapiens) (UniProt P06239)
[4] = target: Epithelial discoidin domain-containing receptor 1 (Homo sapiens) (UniProt Q08345)
[5] = system: Serine/threonine-protein kinase B-raf (Homo sapiens), P15056 [V600E]
[6] = target: AP2-associated protein kinase 1 (Homo sapiens) (UniProt Q2M2I8)
[7] = target: Serine/threonine-protein kinase SIK1 (Homo sapiens) (UniProt P57059)
Chain of Serine/threonine-protein kinase SIK1 (Homo sapiens) (P57059 whole entry): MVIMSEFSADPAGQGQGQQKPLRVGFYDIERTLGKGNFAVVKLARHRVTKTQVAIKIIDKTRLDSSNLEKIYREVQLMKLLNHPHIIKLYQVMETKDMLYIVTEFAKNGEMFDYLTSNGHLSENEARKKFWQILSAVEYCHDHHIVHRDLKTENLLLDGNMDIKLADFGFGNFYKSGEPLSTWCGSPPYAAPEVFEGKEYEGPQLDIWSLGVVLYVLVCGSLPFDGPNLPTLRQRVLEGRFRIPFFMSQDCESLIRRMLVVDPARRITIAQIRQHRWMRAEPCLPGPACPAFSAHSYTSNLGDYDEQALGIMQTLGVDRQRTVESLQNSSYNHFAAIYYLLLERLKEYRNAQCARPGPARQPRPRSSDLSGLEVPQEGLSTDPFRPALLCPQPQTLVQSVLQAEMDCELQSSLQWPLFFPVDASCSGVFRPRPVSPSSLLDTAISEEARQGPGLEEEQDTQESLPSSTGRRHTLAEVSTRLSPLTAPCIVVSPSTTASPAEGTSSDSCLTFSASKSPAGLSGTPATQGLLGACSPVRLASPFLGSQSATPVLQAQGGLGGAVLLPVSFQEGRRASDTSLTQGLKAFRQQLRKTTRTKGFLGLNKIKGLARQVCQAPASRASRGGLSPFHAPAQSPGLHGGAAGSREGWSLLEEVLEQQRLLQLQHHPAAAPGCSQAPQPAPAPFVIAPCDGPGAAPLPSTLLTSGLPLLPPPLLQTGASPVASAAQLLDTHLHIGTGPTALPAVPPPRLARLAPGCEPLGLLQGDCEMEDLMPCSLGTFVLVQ

[8] = target: TGF-beta receptor type-2 (Homo sapiens) (UniProt P37173)
[9] = target: Cyclin-dependent kinase 2 homolog (Plasmodium falciparum (isolate 3D7)) (UniProt P61075)
[10] = target: Homeodomain-interacting protein kinase 3 (Homo sapiens) (UniProt Q9H422)
[11] = target: Serine/threonine-protein kinase ULK2 (Homo sapiens) (UniProt Q8IYT8)
[12] = target: Mitogen-activated protein kinase kinase kinase kinase 5 (Homo sapiens) (UniProt Q9Y4K4)
Chain of Mitogen-activated protein kinase kinase kinase kinase 5 (Homo sapiens) (Q9Y4K4 whole entry, looked up): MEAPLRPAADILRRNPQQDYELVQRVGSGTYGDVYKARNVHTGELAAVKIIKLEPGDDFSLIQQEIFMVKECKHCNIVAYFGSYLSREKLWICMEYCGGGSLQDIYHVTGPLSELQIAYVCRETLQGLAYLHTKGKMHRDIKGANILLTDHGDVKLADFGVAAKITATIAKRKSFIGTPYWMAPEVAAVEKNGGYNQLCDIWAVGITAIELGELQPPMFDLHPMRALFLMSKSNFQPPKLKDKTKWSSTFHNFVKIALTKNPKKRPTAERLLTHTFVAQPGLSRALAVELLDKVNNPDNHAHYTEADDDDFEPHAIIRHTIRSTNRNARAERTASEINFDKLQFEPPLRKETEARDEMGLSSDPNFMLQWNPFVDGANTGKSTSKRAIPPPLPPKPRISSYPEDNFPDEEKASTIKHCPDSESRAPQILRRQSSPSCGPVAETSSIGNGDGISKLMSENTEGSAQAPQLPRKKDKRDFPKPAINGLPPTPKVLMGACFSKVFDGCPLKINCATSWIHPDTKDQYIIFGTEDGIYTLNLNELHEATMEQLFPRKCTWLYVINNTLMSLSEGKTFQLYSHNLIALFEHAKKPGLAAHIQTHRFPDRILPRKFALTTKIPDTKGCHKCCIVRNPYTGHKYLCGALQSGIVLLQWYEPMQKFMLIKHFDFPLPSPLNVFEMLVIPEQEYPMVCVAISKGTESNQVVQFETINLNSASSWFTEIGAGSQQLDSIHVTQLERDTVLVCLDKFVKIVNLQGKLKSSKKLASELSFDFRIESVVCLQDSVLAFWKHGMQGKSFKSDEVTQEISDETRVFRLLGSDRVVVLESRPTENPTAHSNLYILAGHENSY

[13] = target: Cyclin-dependent kinase 3 (Homo sapiens) (UniProt Q00526)
[14] = target: Serine/threonine-protein kinase Sgk2 (Homo sapiens) (UniProt Q9HBY8)
Chain of Serine/threonine-protein kinase Sgk2 (Homo sapiens) (Q9HBY8 whole entry): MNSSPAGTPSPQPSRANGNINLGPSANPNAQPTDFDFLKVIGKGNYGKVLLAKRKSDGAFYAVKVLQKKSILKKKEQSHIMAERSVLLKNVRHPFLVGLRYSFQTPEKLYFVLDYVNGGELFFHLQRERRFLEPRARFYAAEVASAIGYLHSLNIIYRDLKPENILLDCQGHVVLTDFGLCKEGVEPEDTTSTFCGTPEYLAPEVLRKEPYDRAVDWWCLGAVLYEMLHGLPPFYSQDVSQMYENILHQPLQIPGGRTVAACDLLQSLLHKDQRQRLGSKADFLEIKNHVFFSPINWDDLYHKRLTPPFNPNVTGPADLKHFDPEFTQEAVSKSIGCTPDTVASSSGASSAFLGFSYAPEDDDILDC

[15] = target: Interleukin-1 receptor-associated kinase 3 (Homo sapiens) (UniProt Q9Y616)
[16] = target: Dual specificity testis-specific protein kinase 1 (Homo sapiens) (UniProt Q15569)
[17] = target: Mitogen-activated protein kinase kinase kinase 6 (Homo sapiens) (UniProt O95382)
[18] = target: Phosphatidylinositol 4-kinase beta (Homo sapiens) (UniProt Q9UBF8)
[19] = target: Muscle, skeletal receptor tyrosine-protein kinase (Homo sapiens) (UniProt O15146)
[20] = system: Phosphatidylinositol 4,5-bisphosphate 3-kinase catalytic subunit alpha isoform (Homo sapiens), P42336 [E545K]
Chain of Phosphatidylinositol 4,5-bisphosphate 3-kinase catalytic subunit alpha isoform (Homo sapiens), P42336 [E545K] (P42336 whole entry E545K, canonical isoform): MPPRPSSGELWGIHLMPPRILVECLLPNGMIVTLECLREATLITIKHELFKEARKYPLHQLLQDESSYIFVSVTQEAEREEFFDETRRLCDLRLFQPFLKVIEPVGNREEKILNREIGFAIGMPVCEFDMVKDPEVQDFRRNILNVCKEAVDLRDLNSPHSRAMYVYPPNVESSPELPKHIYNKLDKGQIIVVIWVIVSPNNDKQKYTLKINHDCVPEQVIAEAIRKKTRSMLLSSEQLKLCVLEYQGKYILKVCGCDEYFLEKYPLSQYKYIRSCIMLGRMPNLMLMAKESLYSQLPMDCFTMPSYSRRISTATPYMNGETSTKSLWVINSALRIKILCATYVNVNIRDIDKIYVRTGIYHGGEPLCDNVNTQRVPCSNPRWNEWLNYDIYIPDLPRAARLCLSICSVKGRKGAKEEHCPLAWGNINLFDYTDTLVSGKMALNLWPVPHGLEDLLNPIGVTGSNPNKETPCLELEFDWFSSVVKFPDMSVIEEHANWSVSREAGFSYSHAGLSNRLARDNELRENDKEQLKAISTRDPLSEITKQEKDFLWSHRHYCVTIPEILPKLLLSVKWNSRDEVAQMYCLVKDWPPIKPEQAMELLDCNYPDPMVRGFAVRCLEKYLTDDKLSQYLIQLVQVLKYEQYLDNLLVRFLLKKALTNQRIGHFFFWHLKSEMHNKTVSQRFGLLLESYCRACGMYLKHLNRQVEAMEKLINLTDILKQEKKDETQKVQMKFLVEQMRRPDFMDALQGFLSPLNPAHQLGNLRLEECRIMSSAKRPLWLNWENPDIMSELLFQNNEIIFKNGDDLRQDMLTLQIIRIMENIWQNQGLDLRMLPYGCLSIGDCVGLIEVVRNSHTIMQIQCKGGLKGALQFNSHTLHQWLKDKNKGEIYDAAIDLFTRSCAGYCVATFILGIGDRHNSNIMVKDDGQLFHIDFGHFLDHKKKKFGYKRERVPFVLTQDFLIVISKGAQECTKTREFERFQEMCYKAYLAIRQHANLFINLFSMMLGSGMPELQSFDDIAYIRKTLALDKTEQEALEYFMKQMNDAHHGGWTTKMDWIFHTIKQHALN

[21] = target: Eukaryotic translation initiation factor 2-alpha kinase 1 (Homo sapiens) (UniProt Q9BQI3)
Chain of Eukaryotic translation initiation factor 2-alpha kinase 1 (Homo sapiens) (Q9BQI3 whole entry): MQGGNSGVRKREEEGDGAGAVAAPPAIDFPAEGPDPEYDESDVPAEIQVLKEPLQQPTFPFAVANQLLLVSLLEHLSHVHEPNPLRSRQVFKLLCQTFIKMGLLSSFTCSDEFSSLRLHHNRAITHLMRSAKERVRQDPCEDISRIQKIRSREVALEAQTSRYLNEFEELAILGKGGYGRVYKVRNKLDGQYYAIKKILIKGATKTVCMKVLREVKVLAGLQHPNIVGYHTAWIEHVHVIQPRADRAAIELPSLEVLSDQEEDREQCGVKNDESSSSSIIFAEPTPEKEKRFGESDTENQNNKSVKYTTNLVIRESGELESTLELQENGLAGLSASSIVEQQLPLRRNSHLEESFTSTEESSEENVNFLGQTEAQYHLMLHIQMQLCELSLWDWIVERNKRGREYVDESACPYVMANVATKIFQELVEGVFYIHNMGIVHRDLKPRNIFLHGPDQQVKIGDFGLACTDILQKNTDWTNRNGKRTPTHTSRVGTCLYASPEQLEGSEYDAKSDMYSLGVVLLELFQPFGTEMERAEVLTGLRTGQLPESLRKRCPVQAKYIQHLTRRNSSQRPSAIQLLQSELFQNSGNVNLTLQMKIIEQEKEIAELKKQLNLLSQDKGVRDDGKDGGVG

[22] = system: Mast/stem cell growth factor receptor Kit (Homo sapiens), P10721 [A829P]
[23] = target: Death-associated protein kinase 2 (Homo sapiens) (UniProt Q9UIK4)
[24] = target: Serine/threonine-protein kinase 33 (Homo sapiens) (UniProt Q9BYT3)
[25] = target: Ribosomal protein S6 kinase alpha-1 (Homo sapiens) (UniProt Q15418)
[26] = target: Casein kinase I isoform alpha-like (Homo sapiens) (UniProt Q8N752)
Chain of Casein kinase I isoform alpha-like (Homo sapiens) (Q8N752 whole entry, canonical isoform): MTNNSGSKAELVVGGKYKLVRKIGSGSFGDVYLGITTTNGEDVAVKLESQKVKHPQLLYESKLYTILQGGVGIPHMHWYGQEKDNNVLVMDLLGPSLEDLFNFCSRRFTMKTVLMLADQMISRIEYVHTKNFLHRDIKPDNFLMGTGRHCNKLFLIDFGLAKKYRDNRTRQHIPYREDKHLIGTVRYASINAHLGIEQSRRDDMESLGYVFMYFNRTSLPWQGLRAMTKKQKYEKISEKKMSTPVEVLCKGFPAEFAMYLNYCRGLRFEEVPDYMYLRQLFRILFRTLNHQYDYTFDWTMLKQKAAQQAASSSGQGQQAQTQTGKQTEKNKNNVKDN

[27] = system: Receptor-type tyrosine-protein kinase FLT3 (Homo sapiens), P36888 [K663Q]
[28] = target: Wee1-like protein kinase (Homo sapiens) (UniProt P30291)
[29] = target: Mitogen-activated protein kinase 4 (Homo sapiens) (UniProt P31152)
[30] = target: Serine/threonine-protein kinase PAK 4 (Homo sapiens) (UniProt O96013)
[31] = target: Calcium-dependent protein kinase 1 (Plasmodium falciparum) (UniProt P62344)
[32] = target: Phosphatidylinositol 3-kinase catalytic subunit type 3 (Homo sapiens) (UniProt Q8NEB9)
[33] = target: Serine/threonine-protein kinase PAK 2 (Homo sapiens) (UniProt Q13177)
[34] = target: Serine/threonine-protein kinase PknB (Mycobacterium tuberculosis) (UniProt P9WI81)
[35] = target: NUAK family SNF1-like kinase 2 (Homo sapiens) (UniProt Q9H093)
[36] = target: Angiopoietin-1 receptor (Homo sapiens) (UniProt Q02763)
[37] = target: Cyclin-dependent kinase 11A (Homo sapiens) (UniProt Q9UQ88)
[38] = target: Phosphatidylinositol 4,5-bisphosphate 3-kinase catalytic subunit gamma isoform (Homo sapiens) (UniProt P48736)
[39] = target: Serine/threonine-protein kinase PLK2 (Homo sapiens) (UniProt Q9NYY3)
[40] = target: Mitogen-activated protein kinase 9 (Homo sapiens) (UniProt P45984)
Chain of Mitogen-activated protein kinase 9 (Homo sapiens) (P45984 whole entry, looked up): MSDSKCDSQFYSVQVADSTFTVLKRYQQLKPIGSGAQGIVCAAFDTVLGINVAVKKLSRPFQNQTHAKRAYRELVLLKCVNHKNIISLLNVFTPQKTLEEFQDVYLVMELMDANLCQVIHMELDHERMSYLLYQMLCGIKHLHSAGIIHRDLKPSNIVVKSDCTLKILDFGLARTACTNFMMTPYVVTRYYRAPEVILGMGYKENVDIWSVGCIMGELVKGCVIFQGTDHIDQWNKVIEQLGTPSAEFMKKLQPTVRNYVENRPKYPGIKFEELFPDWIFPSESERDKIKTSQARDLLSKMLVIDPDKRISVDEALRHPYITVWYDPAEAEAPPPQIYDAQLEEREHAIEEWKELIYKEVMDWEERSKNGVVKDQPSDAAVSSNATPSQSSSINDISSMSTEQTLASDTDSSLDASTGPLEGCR

[41] = target: Inhibitor of nuclear factor kappa-B kinase subunit beta (Homo sapiens) (UniProt O14920)
[42] = target: Non-receptor tyrosine-protein kinase TYK2 (Homo sapiens) (UniProt P29597)
[43] = target: Serine/threonine-protein kinase 38 (Homo sapiens) (UniProt Q15208)
Chain of Serine/threonine-protein kinase 38 (Homo sapiens) (Q15208 2-465 limits assumed): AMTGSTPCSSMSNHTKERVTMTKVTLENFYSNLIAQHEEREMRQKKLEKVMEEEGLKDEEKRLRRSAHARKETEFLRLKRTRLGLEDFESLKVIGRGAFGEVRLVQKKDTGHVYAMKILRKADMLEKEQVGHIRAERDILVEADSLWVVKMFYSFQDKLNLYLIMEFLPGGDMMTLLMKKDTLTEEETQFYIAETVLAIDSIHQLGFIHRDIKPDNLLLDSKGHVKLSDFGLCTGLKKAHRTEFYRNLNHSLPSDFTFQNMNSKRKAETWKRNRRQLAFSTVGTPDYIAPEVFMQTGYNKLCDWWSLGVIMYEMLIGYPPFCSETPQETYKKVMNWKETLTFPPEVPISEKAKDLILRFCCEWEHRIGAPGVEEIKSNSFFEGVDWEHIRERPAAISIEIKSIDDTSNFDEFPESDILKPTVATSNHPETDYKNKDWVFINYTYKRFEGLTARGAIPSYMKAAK

[44] = target: Calcium/calmodulin-dependent protein kinase type 1B (Homo sapiens) (UniProt Q6P2M8)
[45] = target: Hepatocyte growth factor receptor (Homo sapiens) (UniProt P08581)

Measured: residual activity

O=c1nc(-c2ccccn2)sc2ccccc12 [BTZO-1]
inactive: [1] 71% | [2] 84% | [3] 95% | [4] 85% | [5] 100% | [6] 100% | [7] 95% | [8] 100% | [9] 100% | [10] 92% | [11] 100% | [12] 100% | [13] 99% | [14] 85% | [15] 82% | [16] 84% | [17] 71% | [18] 71% | [19] 100% | [20] 65% | [21] 97% | [22] 100% | [23] 86% | [24] 87% | [25] 100% | [26] 100% | [27] 100% | [28] 100% | [29] 100% | [30] 86% | [31] 77% | [32] 82% | [33] 100% | [34] 88% | [35] 100% | [36] 99% | [37] 94% | [38] 100% | [39] 95% | [40] 100% | [41] 100% | [42] 98% | [43] 76% | [44] 56% | [45] 74%

O=C1NC(c2ccccn2)Sc2ccccc21 (stereo not given) [BTZO-4]
inactive: [1] 72% | [2] 100% | [3] 80% | [4] 86% | [5] 94% | [6] 100% | [7] 88% | [8] 85% | [9] 100% | [10] 86% | [11] 76% | [12] 100% | [13] 100% | [14] 72% | [15] 87% | [16] 100% | [17] 65% | [18] 79% | [19] 90% | [20] 73% | [21] 79% | [22] 98% | [23] 79% | [24] 93% | [25] 100% | [26] 89% | [27] 82% | [28] 100% | [29] 86% | [30] 84% | [31] 57% | [32] 99% | [33] 100% | [34] 77% | [35] 100% | [36] 100% | [37] 100% | [38] 91% | [39] 97% | [40] 100% | [41] 100% | [42] 86% | [43] 76% | [44] 71% | [45] 68%
